Reference: the supplement of paper PMC10307832

How the values were obtained:
Motesanib + Luminespib = compound: CC1(C)CNc2cc(NC(=O)c3cccnc3NCc3ccncc3)ccc21 [Motesanib] + CCNC(=O)c1noc(-c2cc(C(C)C)c(O)cc2O)c1-c1ccc(CN2CCOCC2)cc1 [Luminespib] (partner 0.01 µM); assay: relative viability (nuclei count vs DMSO), 5 days (fraction); higher = more cells survive
Outline: (§1)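 Dosing by pin tool came one day after lung cancer cell lines were seeded in 1536-well plates, using either one drug or a fixed anchor-drug dose plus five library-drug doses (not always all listed) in √10 steps. After 5 days, nuclei were counted on 4× images. Relative viability is treated-well nuclei count divided by vehicle-well nuclei count, and values are medians of duplicate plates.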

Motesanib + Dasatinib = compound: CC1(C)CNc2cc(NC(=O)c3cccnc3NCc3ccncc3)ccc21 [Motesanib] + Cc1nc(Nc2ncc(C(=O)Nc3c(C)cccc3Cl)s2)cc(N2CCN(CCO)CC2)n1 [Dasatinib] (partner 0.075 µM); assay: as above
Outline: as §1

Question: With NCI-H2342 as the cell line, how does the relative viability (Motesanib + Luminespib; first compound 0.01 µM) read?
Answer: 0.647

Question: And the relative viability (Motesanib + Luminespib; first compound 0.03162 µM)?
Answer: 0.622

Question: What about the relative viability (Motesanib + Luminespib; first compound 0.1 µM) of the same cell line?
Answer: 0.795

Question: What about the relative viability (Motesanib + Luminespib; first compound 0.3162 µM) of the same cell line?
Answer: 0.642

Question: What about the relative viability (Motesanib + Luminespib; first compound 1 µM) of the same cell line?
Answer: 0.841

Question: What about the relative viability (Motesanib + Dasatinib; first compound 0.01 µM) of the same cell line?
Answer: 0.271

Question: And the relative viability (Motesanib + Dasatinib; first compound 0.03162 µM)?
Answer: 0.312

Question: What about the relative viability (Motesanib + Dasatinib; first compound 0.1 µM) of the same cell line?
Answer: 0.336

Question: And the relative viability (Motesanib + Dasatinib; first compound 0.3162 µM)?
Answer: 0.279

Question: What about the relative viability (Motesanib + Dasatinib; first compound 1 µM) of the same cell line?
Answer: 0.317

Question: HCC-15 was tested. Which relative viability (Motesanib + Luminespib; first compound 0.01 µM) did it give?
Answer: 0.33

Question: And the relative viability (Motesanib + Luminespib; first compound 0.03162 µM)?
Answer: 0.38

Question: And the relative viability (Motesanib + Luminespib; first compound 0.1 µM)?
Answer: 0.314

Question: What about the relative viability (Motesanib + Luminespib; first compound 0.3162 µM) of the same cell line?
Answer: 0.278

Question: And the relative viability (Motesanib + Luminespib; first compound 1 µM)?
Answer: 0.545

Question: And the relative viability (Motesanib + Dasatinib; first compound 0.01 µM)?
Answer: 0.648

Question: And the relative viability (Motesanib + Dasatinib; first compound 0.03162 µM)?
Answer: 0.53

Question: What about the relative viability (Motesanib + Dasatinib; first compound 0.1 µM) of the same cell line?
Answer: 0.648

Question: And the relative viability (Motesanib + Dasatinib; first compound 0.3162 µM)?
Answer: 0.758

Question: What about the relative viability (Motesanib + Dasatinib; first compound 1 µM) of the same cell line?
Answer: 0.723

Question: A-427 was tested. Which relative viability (Motesanib + Luminespib; first compound 0.01 µM) did it give?
Answer: 0.872

Question: And the relative viability (Motesanib + Luminespib; first compound 0.03162 µM)?
Answer: 1.05

Question: What about the relative viability (Motesanib + Luminespib; first compound 0.1 µM) of the same cell line?
Answer: 0.769

Question: And the relative viability (Motesanib + Luminespib; first compound 0.3162 µM)?
Answer: 1.24

Question: What about the relative viability (Motesanib + Luminespib; first compound 1 µM) of the same cell line?
Answer: 1.05

Question: What about the relative viability (Motesanib + Dasatinib; first compound 0.01 µM) of the same cell line?
Answer: 0.606

Question: And the relative viability (Motesanib + Dasatinib; first compound 0.03162 µM)?
Answer: 0.724

Question: What about the relative viability (Motesanib + Dasatinib; first compound 0.1 µM) of the same cell line?
Answer: 0.663

Question: And the relative viability (Motesanib + Dasatinib; first compound 0.3162 µM)?
Answer: 0.721

Question: What about the relative viability (Motesanib + Dasatinib; first compound 1 µM) of the same cell line?
Answer: 0.81

Question: Which results are given for NCI-H2228?
Answer: relative viability (Motesanib + Luminespib; first compound 0.01 µM): 0.19; relative viability (Motesanib + Luminespib; first compound 0.03162 µM): 0.148; relative viability (Motesanib + Luminespib; first compound 0.1 µM): 0.228; relative viability (Motesanib + Luminespib; first compound 0.3162 µM): 0.142; relative viability (Motesanib + Luminespib; first compound 1 µM): 0.163; relative viability (Motesanib + Dasatinib; first compound 0.01 µM): 0.497; relative viability (Motesanib + Dasatinib; first compound 0.03162 µM): 0.49; relative viability (Motesanib + Dasatinib; first compound 0.1 µM): 0.549; relative viability (Motesanib + Dasatinib; first compound 0.3162 µM): 0.495; relative viability (Motesanib + Dasatinib; first compound 1 µM): 0.502

Question: With NCI-H1734 as the cell line, how does the relative viability (Motesanib + Luminespib; first compound 0.01 µM) read?
Answer: 0.161

Question: What about the relative viability (Motesanib + Luminespib; first compound 0.03162 µM) of the same cell line?
Answer: 0.188

Question: And the relative viability (Motesanib + Luminespib; first compound 0.3162 µM)?
Answer: 0.199

Question: And the relative viability (Motesanib + Luminespib; first compound 1 µM)?
Answer: 0.201

Question: What about the relative viability (Motesanib + Dasatinib; first compound 0.01 µM) of the same cell line?
Answer: 0.515

Question: What about the relative viability (Motesanib + Dasatinib; first compound 0.03162 µM) of the same cell line?
Answer: 0.448

Question: And the relative viability (Motesanib + Dasatinib; first compound 0.3162 µM)?
Answer: 0.463

Question: What about the relative viability (Motesanib + Dasatinib; first compound 1 µM) of the same cell line?
Answer: 0.405

Question: Which relative viability (Motesanib + Luminespib; first compound 0.01 µM) does the source give for PC-14 here?
Answer: 0.117

Question: And the relative viability (Motesanib + Luminespib; first compound 0.03162 µM)?
Answer: 0.142

Question: What about the relative viability (Motesanib + Luminespib; first compound 0.1 µM) of the same cell line?
Answer: 0.126

Question: What about the relative viability (Motesanib + Luminespib; first compound 0.3162 µM) of the same cell line?
Answer: 0.218

Question: And the relative viability (Motesanib + Luminespib; first compound 1 µM)?
Answer: 0.154

Question: What about the relative viability (Motesanib + Dasatinib; first compound 0.01 µM) of the same cell line?
Answer: 0.288

Question: What about the relative viability (Motesanib + Dasatinib; first compound 0.03162 µM) of the same cell line?
Answer: 0.286

Question: And the relative viability (Motesanib + Dasatinib; first compound 0.1 µM)?
Answer: 0.256

Question: And the relative viability (Motesanib + Dasatinib; first compound 0.3162 µM)?
Answer: 0.298

Question: What about the relative viability (Motesanib + Dasatinib; first compound 1 µM) of the same cell line?
Answer: 0.319

Question: NCI-H1915 was tested. Which relative viability (Motesanib + Luminespib; first compound 0.01 µM) did it give?
Answer: 0.765

Question: What about the relative viability (Motesanib + Luminespib; first compound 0.03162 µM) of the same cell line?
Answer: 0.745

Question: What about the relative viability (Motesanib + Luminespib; first compound 0.1 µM) of the same cell line?
Answer: 0.764

Question: What about the relative viability (Motesanib + Luminespib; first compound 0.3162 µM) of the same cell line?
Answer: 0.826

Question: And the relative viability (Motesanib + Luminespib; first compound 1 µM)?
Answer: 0.754

Question: What about the relative viability (Motesanib + Dasatinib; first compound 0.01 µM) of the same cell line?
Answer: 0.32

Question: And the relative viability (Motesanib + Dasatinib; first compound 0.03162 µM)?
Answer: 0.329

Question: What about the relative viability (Motesanib + Dasatinib; first compound 0.1 µM) of the same cell line?
Answer: 0.303

Question: And the relative viability (Motesanib + Dasatinib; first compound 0.3162 µM)?
Answer: 0.312

Question: And the relative viability (Motesanib + Dasatinib; first compound 1 µM)?
Answer: 0.279

Question: With NCI-H1666 as the cell line, how does the relative viability (Motesanib + Luminespib; first compound 0.01 µM) read?
Answer: 1.05

Question: What about the relative viability (Motesanib + Luminespib; first compound 0.03162 µM) of the same cell line?
Answer: 0.978

Question: What about the relative viability (Motesanib + Luminespib; first compound 0.1 µM) of the same cell line?
Answer: 0.991

Question: And the relative viability (Motesanib + Luminespib; first compound 0.3162 µM)?
Answer: 0.999

Question: What about the relative viability (Motesanib + Luminespib; first compound 1 µM) of the same cell line?
Answer: 0.977

Question: And the relative viability (Motesanib + Dasatinib; first compound 0.01 µM)?
Answer: 0.783

Question: And the relative viability (Motesanib + Dasatinib; first compound 0.03162 µM)?
Answer: 0.747

Question: And the relative viability (Motesanib + Dasatinib; first compound 0.1 µM)?
Answer: 0.89

Question: What about the relative viability (Motesanib + Dasatinib; first compound 0.3162 µM) of the same cell line?
Answer: 0.797

Question: What about the relative viability (Motesanib + Dasatinib; first compound 1 µM) of the same cell line?
Answer: 0.802

Question: Which relative viability (Motesanib + Dasatinib; first compound 0.01 µM) does the source give for HCC-366 here?
Answer: 0.666

Question: What about the relative viability (Motesanib + Dasatinib; first compound 0.03162 µM) of the same cell line?
Answer: 0.553

Question: And the relative viability (Motesanib + Dasatinib; first compound 0.1 µM)?
Answer: 0.552

Question: What about the relative viability (Motesanib + Dasatinib; first compound 0.3162 µM) of the same cell line?
Answer: 0.631

Question: And the relative viability (Motesanib + Dasatinib; first compound 1 µM)?
Answer: 0.808

Question: For SK-MES-1, which relative viability (Motesanib + Luminespib; first compound 0.01 µM) is on record?
Answer: 0.84

Question: What about the relative viability (Motesanib + Luminespib; first compound 0.03162 µM) of the same cell line?
Answer: 0.842

Question: What about the relative viability (Motesanib + Luminespib; first compound 0.1 µM) of the same cell line?
Answer: 0.986

Question: What about the relative viability (Motesanib + Luminespib; first compound 0.3162 µM) of the same cell line?
Answer: 0.785

Question: What about the relative viability (Motesanib + Luminespib; first compound 1 µM) of the same cell line?
Answer: 0.721

Question: And the relative viability (Motesanib + Dasatinib; first compound 0.01 µM)?
Answer: 0.397

Question: What about the relative viability (Motesanib + Dasatinib; first compound 0.03162 µM) of the same cell line?
Answer: 0.424

Question: And the relative viability (Motesanib + Dasatinib; first compound 0.1 µM)?
Answer: 0.373

Question: What about the relative viability (Motesanib + Dasatinib; first compound 0.3162 µM) of the same cell line?
Answer: 0.412

Question: And the relative viability (Motesanib + Dasatinib; first compound 1 µM)?
Answer: 0.378

Question: With SW 1573 as the cell line, how does the relative viability (Motesanib + Luminespib; first compound 0.01 µM) read?
Answer: 0.152

Question: And the relative viability (Motesanib + Luminespib; first compound 0.03162 µM)?
Answer: 0.266

Question: And the relative viability (Motesanib + Luminespib; first compound 0.1 µM)?
Answer: 0.207

Question: What about the relative viability (Motesanib + Luminespib; first compound 0.3162 µM) of the same cell line?
Answer: 0.323

Question: What about the relative viability (Motesanib + Luminespib; first compound 1 µM) of the same cell line?
Answer: 0.335

Question: What about the relative viability (Motesanib + Dasatinib; first compound 0.01 µM) of the same cell line?
Answer: 0.53

Question: And the relative viability (Motesanib + Dasatinib; first compound 0.03162 µM)?
Answer: 0.447

Question: What about the relative viability (Motesanib + Dasatinib; first compound 0.1 µM) of the same cell line?
Answer: 0.593

Question: And the relative viability (Motesanib + Dasatinib; first compound 0.3162 µM)?
Answer: 0.552

Question: And the relative viability (Motesanib + Dasatinib; first compound 1 µM)?
Answer: 0.673

Question: For NCI-H661, which relative viability (Motesanib + Luminespib; first compound 0.01 µM) is on record?
Answer: 0.912

Question: What about the relative viability (Motesanib + Luminespib; first compound 0.03162 µM) of the same cell line?
Answer: 0.968

Question: What about the relative viability (Motesanib + Luminespib; first compound 0.1 µM) of the same cell line?
Answer: 0.948

Question: And the relative viability (Motesanib + Luminespib; first compound 0.3162 µM)?
Answer: 0.952

Question: And the relative viability (Motesanib + Luminespib; first compound 1 µM)?
Answer: 0.901

Question: What about the relative viability (Motesanib + Dasatinib; first compound 0.01 µM) of the same cell line?
Answer: 0.818

Question: What about the relative viability (Motesanib + Dasatinib; first compound 0.03162 µM) of the same cell line?
Answer: 0.842

Question: And the relative viability (Motesanib + Dasatinib; first compound 0.1 µM)?
Answer: 0.833

Question: What about the relative viability (Motesanib + Dasatinib; first compound 0.3162 µM) of the same cell line?
Answer: 0.977

Question: What about the relative viability (Motesanib + Dasatinib; first compound 1 µM) of the same cell line?
Answer: 0.861

Question: With PC-3 [JPC-3] as the cell line, how does the relative viability (Motesanib + Luminespib; first compound 0.01 µM) read?
Answer: 0.686

Question: What about the relative viability (Motesanib + Luminespib; first compound 0.03162 µM) of the same cell line?
Answer: 0.745

Question: What about the relative viability (Motesanib + Luminespib; first compound 0.1 µM) of the same cell line?
Answer: 0.683

Question: And the relative viability (Motesanib + Luminespib; first compound 0.3162 µM)?
Answer: 0.597

Question: And the relative viability (Motesanib + Luminespib; first compound 1 µM)?
Answer: 0.733

Question: And the relative viability (Motesanib + Dasatinib; first compound 0.01 µM)?
Answer: 0.845

Question: And the relative viability (Motesanib + Dasatinib; first compound 0.03162 µM)?
Answer: 0.989

Question: What about the relative viability (Motesanib + Dasatinib; first compound 0.1 µM) of the same cell line?
Answer: 0.974

Question: And the relative viability (Motesanib + Dasatinib; first compound 0.3162 µM)?
Answer: 1.04

Question: What about the relative viability (Motesanib + Dasatinib; first compound 1 µM) of the same cell line?
Answer: 0.974
